# Experimental data as given in patent US8377969B2, “Compounds for use in the treatment of cancer” (PledPharma AB, priority 2007, dated 2013).
# Tests used:
# infarct size = conditions: pigs; MnPLED 3 μmol/kg; cited from earlier work
# [1] = Fenton assay (competition with iron, H2DCF oxidation); conditions: FIG. 4
# Procedure: By permitting the chelator DPDP, the metal complexes MnDPDP and MnPLED to compete with iron in the Fenton assay, the stability of MnDPDP and MnPLED was compared.
# H2O2 (100 μM) was added to initiate the production of hydroxyl radicals (HO.). The latter oxidize H2DCF (non-fluorescent 2′,7′-dichlorodihydrofluorescein; 5 μM) to fluorescent DCF (2′,7′-dichlorofluorescein). H2DCF was obtained by hydrolysing its acetate ester (H2DCF-DA)]. […] DPDP, MnDPDP and MnPLED at various concentrations were assayed for their iron-chelating capacity. Fluorescence was measured in an FL600 Microplate Fluorescence reader (Bio-Tek, Winooski, Vt., U.S.A.) at ex 485 nm and em 530 nm.
# [2] = system: human ileocecal colorectal adenocarcinoma cells (HCT-8); experiment: Fluorometric microculture cytotoxicity assay (FMCA), HCT-8; type: cell-based; conditions: HCT-8 cells; for cytostatic effect (alone): FMCA, 72 h
# Procedure: (§1) HCT-8 cells were grown in RPMI 1640 medium with sodium pyruvate (1 mM) and 10% horse serum. SW620 were grown in ATCC-formulated Leibovitz's L-15 Medium with 10% fetal bovine serum. Cells were kept at 37° C. in a humidified atmosphere containing 5% carbon dioxide. The cells were harvested in the log-phase for experimental use. The fluorometric microculture cytotoxicity assay (FMCA) was used to investigate the cytostatic activity of oxaliplatin, MnDPDP or DPDP and combinations thereof. FMCA is based on measurement of fluorescence generated from hydrolysis of fluorescein diacetate (FDA) to fluorescein by cells with intact plasma membranes. Briefly, 96-well microtiter plates were freshly prepared with drug solutions in triplicates at 10 times the desired drug concentrations. Cell suspensions were seeded into the drug-prepared plates with 20 000 cells per well and plates were then incubated for 72 h. After incubation, the plates were washed, FDA was added, and after 50 min of incubation the fluorescence generated (excitation 480 nm) was measured at 538 nm in a fluorometer (Fluorostar Optima, BMG Technologies). The fluorescence is proportional to the number of cells with intact plasma membrane present in the well.
# [3] = system: normal retinal epithelia telomerase immortalized cells (hTERT-RPE1); experiment: Fluorometric microculture cytotoxicity assay (FMCA), hTERT-RPE1; type: cell-based; conditions: for cytostatic effect (alone): FMCA, 72 h
# [4] = system: human adenocarcinoma cells (SW620); experiment: Fluorometric microculture cytotoxicity assay (FMCA), SW620; type: cell-based; conditions: for cytostatic effect (alone): FMCA, 72 h
# Procedure: as §1
# [5] = cited from earlier work
# [6] = pigs, ten minutes after injection; cited from earlier work
# [7] = Rocklage et al., 1989; cited from earlier work
# [8] = Rocklage et al., 1989; cited from earlier work; remark: listed apart in the source
# [9] = Rocklage et al., 1989; cited from earlier work; remark: listed apart in the source
# [10] = from the reported stability constants
# [11] = system: murine lymphoma J774 cells; conditions: 24 h, MTT
# Procedure: (§2) The viability of cells was measured using the MTT assay. Briefly, 20,000 SW480 or J774 cells were seeded per well on a 96-well plate and grown over night in Dulbecco's Modified Eagle's Medium (DMEM) containing 10% fetal bovine serum, 2 mM L-glutamine, 100 Ul/ml penicillin and 100 μg/ml streptomycin at 37° C. in humidified air with 5% CO2. Cells were then exposed for 24 h to 50 μM MnDPDP, 50 μM DPDP or 10 μM oxaliplatin at 37° C. The effect of combining 50 μM DPDP with 10 μM oxaliplatin on viability was also tested. The viability of the cells was then assessed by adding 5 mg/ml methylthiazoletetrazolium (MTT) to a final concentration of 0.5 mg/ml and incubating cells for a further 4 h at 37° C. The blue formazan that is formed by mitochondrial dehydrogenases of viable cells was then dissolved over night at 37° C. by adding 10% SDS and 10 mM HCl to a final concentration of 5% SDS and 5 mM HCl. Finally, the absorbance of the solution was read at 570 nm with a reference at 670 nm in a microplate reader Spectramax 340 (Molecular Devices, Sunnyvale, Calif., USA) connected to an Apple Macintosh computer running the program Softmax Pro V1.2.0 (Molecular Devices, Sunnyvale, Calif., USA).
# [12] = system: human colon cancer SW480 cells; conditions: 24 h, MTT
# Procedure: as §2
compound,measurement,setting,value
MnDPDP,infarct size,infarct size,did not reduce the infarct size
same,iron-chelating capacity,[1]; Fenton assay,significantly higher than that of MnPLED
same,cytostatic effect (alone),[2],Neither MnDPDP nor DPDP demonstrated any cytostatic effect
same,cytostatic effect (alone),[3],Neither MnDPDP nor DPDP demonstrated any cytostatic effect
same,cytostatic effect (alone),[4],Neither MnDPDP nor DPDP demonstrated any cytostatic effect
same,administered manganese released,"[5]; humans, intravenous injection",about 70%
same,injected manganese that stays bound to the chelator,"[5]; man, for a considerable amount of time",about 30%
same,injected MnDPDP transformed into MnPLED,"[5]; man, shortly after intravenous injection",about 30%
same,replacement of manganese with zinc,[6],all manganese has been replaced with zinc
"O=C1[O][Pt]2([NH][C@@H]3CCCC[C@H]3[NH]2)[O]C1=O [Oxaliplatin, oxaliplatin]",cytostatic effect (alone),[2],concentrations-dependent cytostatic effect
same,cytostatic effect (alone),[3],only a slight effect at its highest concentration
same,cytostatic effect (alone),[4],concentrations-dependent cytostatic effect
"Cc1ncc(CO)c(CN(CCN(CC(=O)O)Cc2c(CO)cnc(C)c2O)CC(=O)O)c1O [PLED, N,N′-dipyridoxyl ethylenediamine-N,N′-diacetic acid]",stability constant with Fe^3+ (ferric iron),[7],36.88 logK
same,stability constant with Zn^2+,[8],16.68 logK
same,stability constant with Mn^2+,[9],12.56 logK
same,how much more readily Mn^2+ dissociates than Zn^2+,[10],about 1000 times
"Cc1ncc(COP(=O)(O)O)c(CN(CCN(CC(=O)O)Cc2c(COP(=O)(O)O)cnc(C)c2O)CC(=O)O)c1O [DPDP, N,N′-bis-(pyridoxal-5-phosphate)-ethylenediamine-N,N′-diacetic acid]",inhibition of the Fenton reaction,"[1]; 10 μM ferric iron, 100 μM cysteine, 100 μM H2O2",inhibited the Fenton reaction in a dose-dependent manner
same,concentration at which inhibition of the Fenton reaction started,[1]; 10 μM ferric iron,0.1 µM
same,concentration at which inhibition of the Fenton reaction was complete,[1]; 10 μM ferric iron,10 µM
same,potentiation of the cytostatic effects of oxaliplatin,"[2]; 100 μM with 8 μM oxaliplatin, FMCA 72 h, FIG. 3C",significantly (unpaired t-test) potentiated
same,cytostatic effect (alone),[2],Neither MnDPDP nor DPDP demonstrated any cytostatic effect
same,potentiation of the cytostatic effects of oxaliplatin,"[3]; 100 μM with 8 μM oxaliplatin, FMCA 72 h, FIG. 3D",but not in normal cells
same,cytostatic effect (alone),[3],Neither MnDPDP nor DPDP demonstrated any cytostatic effect
same,potentiation of the cytostatic effects of oxaliplatin,"[4]; 100 μM with 8 μM oxaliplatin, FMCA 72 h, FIG. 3B",significantly (unpaired t-test) potentiated
same,cytostatic effect (alone),[4],Neither MnDPDP nor DPDP demonstrated any cytostatic effect
same,how much more readily Mn^2+ dissociates than Zn^2+,[10],about 1000 times
same,cytostatic activity in combination with oxaliplatin versus oxaliplatin alone,[11]; 50 μM DPDP + 10 μM oxaliplatin,significantly more efficacious than oxaliplatin alone
same,cytostatic activity,"[11]; 50 μM, FIG. 2",significantly more efficacious to kill the lymphoma cells than MnDPDP
same,cytostatic activity in combination with oxaliplatin versus oxaliplatin alone,[12]; 50 μM DPDP + 10 μM oxaliplatin,"tendency, although not statistically significant (p<0.07), that DPDP in combination with oxaliplatin was more potent than oxaliplatin alone"
same,cytostatic activity,"[12]; 50 μM, unpaired t-test, FIG. 1",statistically significant more efficacious than that of 50 μM MnDPDP
